Experimental data from patent US8633226B2, “Piperidinyl derivative as a modulator of chemokine receptor activity” (Bristol-Myers Squibb Company, priority 2008, dated 2014).
Where two headings read alike, the source gives them in different places.

How the values were obtained:
[1] = target: Human CCR1 (Homo sapiens (Human), UniProt P32246); assay: Human CCR1 THP-1 binding assay; conditions: [125I]-MIP-1α competition, THP-1 cells
Procedure: For radioligand competition studies, a final concentration of 1×10^5 THP-1 monocytic leukemia cells are combined with 100 μg of LS WGA PS beads (Amersham, Cat.#: RPNQ 0260) in 40 μL of assay buffer (RPMI 1640 without phenol red, 50 mM HEPES, 5 mM MgCl2, 1 mM CaCl2, 0.1% BSA). The THP-1 cell/bead mixture was added to each well of a 384-well assay plate (PerkinElmer, Cat. #:6007899) containing test compound in 3-fold serial dilution, with final concentrations ranging from 8 μM to 0.14 nM. A final concentration of 0.1 nM [^125I]-MIP-1α (PerkinElmer, Cat. #NEX298) in 20 μL assay buffer was added to the reaction. Unlabeled MIP-1α was added in excess to some wells to determine non-specific binding. Sealed assay plates were incubated at room temperature for 12 h then analyzed by LEADseeker™.
The competition data of the test compound over a range of concentrations is plotted as percentage inhibition of radioligand specifically bound in the absence of test compound (percent of total signal). After correcting for non-specific binding, IC50 values are determined. The IC50 value is defined as the concentration of test compound needed to reduce [^125I]-MIP-1α specific binding by 50% and is calculated using the four parameter logistic equation to fit the normalized data. The Ki values are determined by application of the Cheng-Prusoff equation to the IC50 values, where Ki=IC50/(1+ligand concentration/Kd). The Kd of [^125I]-MIP-1α in THP-1 cells is 0.1 nM. Each experiment was run in duplicate.

[2] = target: Human PXR (Homo sapiens (Human), UniProt O75469); assay: PXR transactivation assay; assay type: cell-based; conditions: HepG2 cells, CYP3A-Luc reporter; reported as EC60
Sequence of Human PXR (O75469 whole entry): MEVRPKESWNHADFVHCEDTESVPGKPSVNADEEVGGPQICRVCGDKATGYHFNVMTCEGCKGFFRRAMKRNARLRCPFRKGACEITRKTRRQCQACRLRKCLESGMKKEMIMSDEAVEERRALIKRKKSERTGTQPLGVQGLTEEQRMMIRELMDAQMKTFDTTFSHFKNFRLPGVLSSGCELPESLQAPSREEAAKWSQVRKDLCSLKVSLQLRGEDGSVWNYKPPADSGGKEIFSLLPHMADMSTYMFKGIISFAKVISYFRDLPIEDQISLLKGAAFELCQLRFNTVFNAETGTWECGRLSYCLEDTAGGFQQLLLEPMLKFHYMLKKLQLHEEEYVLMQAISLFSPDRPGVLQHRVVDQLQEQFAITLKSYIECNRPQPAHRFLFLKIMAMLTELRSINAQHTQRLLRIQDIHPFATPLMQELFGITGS
Text: The cell culture medium used is DMEM. […] Charcoal/dextran treated fetal bovine serum (FBS) was purchased from Hyclone (Logan, Utah). HepG2 cells were obtained from ATCC (Manassas, Va.). Human PXR-pcDNA3 and luciferase reporter containing CYP3A4 promoter, CYP3A-Luc, were generated at Bristol-Myers Squibb. White tissue culture (TC)-surface 384-well plates were purchased from Perkin Elmer (Boston, Mass.). Luciferase substrate (Steady-Glo) was purchased from Promega (Madison, Wis.). Control compounds rifampicin, mifepristone, and sulfinpyrazone were purchased from Sigma (St. Louis, Mo.).
Culture of HepG2 cells is performed in T175 flasks using DMEM containing 10% FBS. The transfection mixture contains 1 μg/mL of PXR-pcDNA3 plasmid DNA, 20 μg/ml of Cyp3A-Lue plasmid DNA, 90 μL/mL of Lipofectamine 2000, and serum-free medium. After incubating at room temperature for 20 minutes, the transfection mixture (1 ml per flask) is applied to the cells in fresh medium (20 mL per flask), and flasks incubated at 37° C. (5% CO2) overnight.
The flasks are then tapped vigorously to break up cell aggregates. After the addition of 8 mL of DMEM containing 5% charcoal/dextran-treated FBS, the entire mixture is transferred to conical tubes. Cells are then centrifuged at 1000 rpm for 5 minutes. Cell pellets are resuspended to a final count of ˜7×10^6 cells/ml, in freezing media (DMEM containing 20% serum and 10% DMSO). The cell suspension is aliquoted into 15-mL polypropylene tubes, 5 mL per tube. Cells are slowly frozen by placing in a Styrofoam-insulated container at −80° C. overnight. Vials are transferred to an Ultracold (−140° C.) freezer after 24 hours for long-term storage.
Vials of cryopreserved cells are thawed rapidly in a warm water bath for five minutes. Cells are pooled and diluted to 50 mL in a 50-mL conical vial. The thawed cells are centrifuged at 1500 rpm for 5 minutes to collect the cells and the supernatant discarded. Cells are then resuspended in fresh Media II (DMEM containing 5% charcoal/dextran-treated FBS, 1% Penicillin/Streptomycin, 100 μM Non-essential Amino Acids, 1 mM Sodium Pyruvate, and 2 mM L-Glutamine), counted using the Guava Cell Counter, and diluted to 1.6×10^5 cells/ml in the same media.
Fifty microliters of cell mixture is added to wells in columns 1-23 of white tissue-culture treated 384-well plates containing 0.25 μL of test compound dissolved in 100% DMSO. Fifty microliters of Media II is added to wells in column 24. The plates are incubated at 37° C. (5% CO2) for 24 hours, then 5 μL of Alamar Blue reagent (Trek Diagnostics, Cat #00-100) is added to each well. Plates are then incubated an additional two hours at 37° C., 5% CO2 and then one hour at room temperature. […] After the fluorescence is measured, 25 μL of luciferase substrate (Steady-Glo, Promega) is added to each well. The plates are incubated for fifteen minutes at room temperature, after which the luminescence is read on a PheraStar (BMG Labtech) plate reader.
Rifampicin (10 μM), a well-known agonist of PXR, is included in each plate as an internal standard and positive control. The data is then expressed as percent control (% CTRL), where the control signal is the signal from the 10 μM rifampicin and the blank signal is that from the DMSO vehicle. % CTRL=((Compound signal−Blank signal)/(Control signal−Blank signal))*100
The EC50 is defined as the concentration corresponding to half of the maximal response derived from the fitted 20-point curve as determined using a four-parameter logistic regression model. Additionally, compounds may also be reported as EC20 or EC60.

[3] = In vitro metabolism assay, human liver microsomes, Assay Conditions A; assay type: in vitro ADME; conditions: 0.5 μM compound, 10 minutes, 37° C.
Procedure: Test compound is received as a 3.5 mM stock solution in 100 percent DMSO. Compound is diluted to create a 50 μM acetonitrile (ACN) solution containing 1.4% DMSO, which is then used as a 100× stock for incubation with microsomes. Each compound is tested in duplicate separately in each of three species in the Metabolic Stability-Human, Rat, and Mouse assay suite or as individual species in the Metabolic Stability-Dog or Metabolic Stability-Monkey suites. Compound, NADPH and liver microsome solutions are combined for incubation in three steps:
152 μL of liver microsome suspension, protein concentration of 1.1 mg/mL in 100 mM NaPi, pH 7.4, 6.6 mM MgCl2 buffer, is pre-warmed at 37° C.
• 1) 1.7 μL of 50 μM compound (98.6% ACN, 1.4% DMSO) is added to the same tube and pre-incubated at 37° C. for 5 minutes. • 2) The reaction is initiated by the addition of 17 μL of pre-warmed 10 mM NADPH solution in 100 mM NaPi, pH 7.4. • 3) Reaction components are mixed well, and 75 μL are immediately transferred into 150 μl quench/stop solution (zero-time point, T0). Reactions are incubated at 37° C. for 10 minutes and then an additional 75 μL aliquot is transferred into 150 μL quench solution. Acetonitrile containing 100 μM DMN (a UV standard for injection quality control), is used as the quench solution to terminate metabolic reactions. • 4) Quenched mixtures are centrifuged at 1500 rpm (˜500×g) in an Allegra X-12 centrifuge, SX4750 rotor (Beckman Coulter Inc., Fullerton, Calif.) for fifteen minutes to pellet denatured microsomes. A volume of 90 μL of supernatant extract, containing the mixture of parent compound and its metabolites, is then transferred to a separate 96-well plate for UV-LC/MS-MS analysis to determine the percent of parent compound that is remaining in the mixture. • 5)

[4] = target: hERG (Homo sapiens (Human), UniProt Q12809); assay: hERG patch clamp assay; assay type: cell-based; conditions: HEK-293 cells stably expressing hERG, pH 7.4, protein-free buffer, read-out: hERG, % inh @ 30 μM
Sequence of hERG (Q12809 whole entry): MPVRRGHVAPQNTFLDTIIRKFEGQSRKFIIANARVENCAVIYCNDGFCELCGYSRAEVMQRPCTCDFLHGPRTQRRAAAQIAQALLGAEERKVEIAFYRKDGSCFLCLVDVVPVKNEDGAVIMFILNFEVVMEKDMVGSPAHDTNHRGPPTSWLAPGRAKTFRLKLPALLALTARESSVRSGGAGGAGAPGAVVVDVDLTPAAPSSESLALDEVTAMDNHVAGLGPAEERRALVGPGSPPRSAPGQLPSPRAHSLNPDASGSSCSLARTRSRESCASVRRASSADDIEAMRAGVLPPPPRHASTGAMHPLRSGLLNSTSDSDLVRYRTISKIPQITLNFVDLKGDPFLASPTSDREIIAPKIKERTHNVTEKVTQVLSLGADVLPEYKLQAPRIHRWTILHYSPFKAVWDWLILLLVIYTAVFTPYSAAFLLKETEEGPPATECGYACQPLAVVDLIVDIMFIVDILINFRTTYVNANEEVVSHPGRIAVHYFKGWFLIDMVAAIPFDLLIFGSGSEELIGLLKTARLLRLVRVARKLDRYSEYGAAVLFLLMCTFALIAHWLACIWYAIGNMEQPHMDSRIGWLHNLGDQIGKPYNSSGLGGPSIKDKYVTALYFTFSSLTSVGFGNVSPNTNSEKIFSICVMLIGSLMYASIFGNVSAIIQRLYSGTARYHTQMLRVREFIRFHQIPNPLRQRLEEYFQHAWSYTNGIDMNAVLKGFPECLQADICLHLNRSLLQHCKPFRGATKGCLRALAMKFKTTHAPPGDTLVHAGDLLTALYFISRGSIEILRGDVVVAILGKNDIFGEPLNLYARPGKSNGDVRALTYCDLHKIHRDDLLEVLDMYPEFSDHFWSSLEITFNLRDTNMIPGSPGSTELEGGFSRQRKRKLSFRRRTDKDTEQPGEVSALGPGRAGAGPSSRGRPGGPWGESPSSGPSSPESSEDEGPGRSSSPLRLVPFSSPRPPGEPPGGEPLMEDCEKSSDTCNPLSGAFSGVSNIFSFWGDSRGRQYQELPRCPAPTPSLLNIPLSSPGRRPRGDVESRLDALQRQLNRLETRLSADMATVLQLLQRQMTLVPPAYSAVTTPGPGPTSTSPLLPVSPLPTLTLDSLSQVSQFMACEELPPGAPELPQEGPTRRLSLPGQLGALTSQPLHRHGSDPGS
Procedure: Whole-cell patch-clamp was used to directly measure hERG tail currents in HEK-293 cells stably expressing the cloned hERG potassium channel α subunit. Effects of compounds were calculated by measuring inhibition of peak tail current. Experiments were carried out using an aqueous buffer with pH 7.4 at room temperature. There was no protein in the assay buffer. The test concentrations reported are nominal free drug levels.

[5] = target: human cardiac sodium channel SCN5A (Homo sapiens (Human), UniProt Q14524); assay: Sodium channel whole-cell patch-clamp assay; assay type: cell-based; conditions: HEK-293 cells expressing human cardiac sodium channel SCN5A, pH 7.4, protein-free buffer, read-out: Na, % inh
Sequence of human cardiac sodium channel SCN5A (Q14524 whole entry): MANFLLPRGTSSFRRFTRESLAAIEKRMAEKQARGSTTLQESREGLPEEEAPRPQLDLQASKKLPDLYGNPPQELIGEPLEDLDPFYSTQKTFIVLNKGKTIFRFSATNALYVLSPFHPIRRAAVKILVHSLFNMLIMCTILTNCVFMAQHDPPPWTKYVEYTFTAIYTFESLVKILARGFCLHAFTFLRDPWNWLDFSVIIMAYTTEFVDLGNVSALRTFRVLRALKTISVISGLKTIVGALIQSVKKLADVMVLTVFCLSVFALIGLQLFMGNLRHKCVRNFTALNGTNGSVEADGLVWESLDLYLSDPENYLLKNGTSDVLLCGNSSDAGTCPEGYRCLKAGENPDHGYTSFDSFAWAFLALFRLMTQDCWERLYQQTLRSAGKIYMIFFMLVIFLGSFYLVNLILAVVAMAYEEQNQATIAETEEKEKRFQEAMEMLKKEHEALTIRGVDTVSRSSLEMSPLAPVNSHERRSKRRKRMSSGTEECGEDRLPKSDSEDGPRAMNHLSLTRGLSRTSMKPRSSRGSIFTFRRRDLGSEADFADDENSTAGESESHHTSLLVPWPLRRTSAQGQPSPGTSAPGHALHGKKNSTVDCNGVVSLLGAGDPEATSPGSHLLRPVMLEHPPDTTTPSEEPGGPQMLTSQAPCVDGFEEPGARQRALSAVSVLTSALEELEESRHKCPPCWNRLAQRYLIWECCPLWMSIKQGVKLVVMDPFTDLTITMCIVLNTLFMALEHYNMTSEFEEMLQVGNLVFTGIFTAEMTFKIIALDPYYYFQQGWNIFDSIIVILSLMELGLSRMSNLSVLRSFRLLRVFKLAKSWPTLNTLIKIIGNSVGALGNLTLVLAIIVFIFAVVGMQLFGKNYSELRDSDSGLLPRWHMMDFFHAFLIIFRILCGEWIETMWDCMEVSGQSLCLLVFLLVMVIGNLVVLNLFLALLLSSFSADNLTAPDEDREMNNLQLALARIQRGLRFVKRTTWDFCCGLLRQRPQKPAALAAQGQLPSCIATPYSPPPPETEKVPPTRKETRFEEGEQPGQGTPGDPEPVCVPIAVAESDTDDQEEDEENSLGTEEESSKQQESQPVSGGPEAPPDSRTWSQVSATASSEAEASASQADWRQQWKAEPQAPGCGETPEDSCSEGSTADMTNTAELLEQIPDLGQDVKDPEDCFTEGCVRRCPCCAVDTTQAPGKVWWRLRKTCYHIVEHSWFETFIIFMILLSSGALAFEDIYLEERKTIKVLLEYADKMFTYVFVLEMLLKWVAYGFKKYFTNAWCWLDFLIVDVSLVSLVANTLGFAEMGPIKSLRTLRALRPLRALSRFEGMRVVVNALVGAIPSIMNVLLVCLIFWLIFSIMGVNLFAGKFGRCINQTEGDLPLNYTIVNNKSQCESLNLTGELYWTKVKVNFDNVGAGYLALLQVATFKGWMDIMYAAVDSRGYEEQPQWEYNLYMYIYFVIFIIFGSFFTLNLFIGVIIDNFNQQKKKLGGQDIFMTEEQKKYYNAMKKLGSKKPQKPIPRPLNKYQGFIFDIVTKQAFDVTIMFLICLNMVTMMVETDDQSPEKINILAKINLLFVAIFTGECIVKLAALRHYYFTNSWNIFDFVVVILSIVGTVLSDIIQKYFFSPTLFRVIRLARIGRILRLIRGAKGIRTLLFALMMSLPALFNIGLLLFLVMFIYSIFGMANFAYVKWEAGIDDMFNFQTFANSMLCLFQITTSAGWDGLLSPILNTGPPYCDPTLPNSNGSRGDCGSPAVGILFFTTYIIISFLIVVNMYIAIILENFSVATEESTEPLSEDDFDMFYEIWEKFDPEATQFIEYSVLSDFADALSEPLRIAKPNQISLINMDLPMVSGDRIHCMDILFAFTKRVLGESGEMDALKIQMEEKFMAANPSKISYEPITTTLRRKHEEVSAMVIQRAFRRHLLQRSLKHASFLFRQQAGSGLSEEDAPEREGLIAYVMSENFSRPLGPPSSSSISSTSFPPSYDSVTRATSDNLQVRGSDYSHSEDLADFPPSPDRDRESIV
Procedure: Whole-cell patch-clamp was used to directly measure inward sodium currents in HEK-293 cells expressing the human cardiac sodium channel, SCN5A. After reach steady-state effect in the presence of drug, rate-dependence was assessed by stimulation at frequencies of 1 Hz and 4 Hz. Experiments were carried out using an aqueous buffer at pH 7.4 and at room temperature. There is no protein in the buffer and drug concentrations reported are nominal free drug levels. Test article was evaluated up to 10 μM (protein-free buffer). Rate-dependence of inhibition was assessed by stimulation at frequencies of 1 Hz and 4 Hz.

[6] = target: human cardiac L-type Ca channel (α1C) and its β subunit (Homo sapiens (Human), UniProt Q13936); assay: L-type calcium channel whole-cell patch-clamp assay; assay type: cell-based; conditions: HEK-293 cells, protein-free buffer
Procedure: In addition to the potential for interaction with the L-type calcium channel, whole-cell patch-clamp was used to directly measure inward calcium currents in HEK-293 cells stably expressing the cloned human cardiac L-type Ca channel (α1C) and its β subunit. Effects of compounds were calculated by measuring inhibition of peak current. Experiments were carried out using an aqueous buffer at pH 7.4 and at room temperature. There is no protein in the buffer and drug concentrations reported are nominal free drug levels.

[7] = Protein binding, human; assay type: in vitro ADME
[8] = Protein binding, rabbit; assay type: in vitro ADME
[9] = Electrocardiography in anesthetized rabbits; assay type: in vivo; conditions: male, blood, anesthetized rabbit, iv
Procedure: (§1) A dose-response study of test compound was conducted in anesthetized rabbits to assess the cardiac electrophysiologic profile established in the cellular ion channel assays.
(§2) Experiments were performed in propofol-fentanyl anesthetized closed-chest male rabbits. A body surface electrocardiogram (ECG) and an intra-cardiac His-bundle electrogram were continuously monitored and recorded during the studies, using a PoNeMah system and a Prucka electrophysiological recording system, respectively. Test compound was prepared on the day of study in a vehicle of PEG400:ethanol:water (1:1:1) at a dosing concentration of 30 mg/mL. Test compound (n=3) or vehicle (n=3) was given intravenously over 5 minutes via an infusion pump at incremental doses of 3, 10 and 30 mg/kg. The interval between doses was 10 minutes, allowing for a 5-minute test agent infusion and a 5-minute rest period. Blood was sampled at baseline (pre-drug infusion) and immediately at the end of each infusion. For the 30 mg/kg dose, additional blood samples were taken at 10, 20 and 30 minutes after the end of infusion.
(§3) PR interval, QRS duration and QT interval were averaged from a 1 minute ECG recording period at time of blood sampling. QT interval was corrected for heart rate effects using both Fridericia (QTcf) and Van der Water (QTcv) formulae. AH and HV intervals, representing A-V node conduction and His-Purkinje conduction, respectively, were assessed by manual measurements from the His-bundle electrogram. Data were expressed as percent change from pre-drug baseline (mean±SEM) for PR, QRS, AH and HV intervals as well as delta change from the pre-drug infusion baseline (mean±SEM) for QTc intervals. Changes of ≧10% in PR, QRS, and AH intervals, and 20% in HV interval, as well as >10 ms in QTc interval are considered significant based on experience with the model.

[10] = tested on: anesthetized rabbits; assay: Electrocardiography in anesthetized rabbits; assay type: in vivo; conditions: anesthetized rabbit; for Cmax: Free drug at QT effect dose / Cmax: Free drug at NOEL dose: iv
Procedure: as §1, §2, §3

Sequence of Human CCR1 (P32246 whole entry): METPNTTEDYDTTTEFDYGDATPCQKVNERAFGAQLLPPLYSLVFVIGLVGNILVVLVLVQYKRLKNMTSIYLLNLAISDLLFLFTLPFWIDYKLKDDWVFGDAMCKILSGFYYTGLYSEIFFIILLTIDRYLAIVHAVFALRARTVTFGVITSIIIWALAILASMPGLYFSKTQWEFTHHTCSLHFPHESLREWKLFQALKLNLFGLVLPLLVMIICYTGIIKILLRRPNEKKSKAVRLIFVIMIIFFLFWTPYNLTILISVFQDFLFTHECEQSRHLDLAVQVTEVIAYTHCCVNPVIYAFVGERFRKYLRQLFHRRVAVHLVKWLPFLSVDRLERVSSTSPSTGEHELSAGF

PXR EC60 [2]	Human Liver Microsomal Metabolism % remaining (Assay Conditions A) [3]	SMILES	Ki [1]	inhibition at 30 µM [4]	inhibition at 10 µM [5]	Ca, % inh ([6]; 30 μM)	fraction unbound [7]	fraction unbound [8]	Cmax ([9]; 10 mg/kg, read-out: Cmax: Total drug at QT effect dose)	QT effect Dose ([10]; iv infusion)	QTcf, delta ([10]; iv infusion, at QT effect dose 10 mg/kg)	Cmax: Free drug at QT effect dose ([10]; 10 mg/kg)	Cmax: Free drug at NOEL dose ([10]; NOEL not identified (<10 mg/kg))	Ca, % inh ([6]; 10 μM)	Cmax ([9]; 30 mg/kg, read-out: Cmax: Total drug at QT effect dose)	Cmax ([9]; NOEL dose 10 mg/kg, read-out: Cmax: Total drug at NOEL dose)	NOEL dose (No Observed Effect Level) ([10]; iv infusion)	QTcf, delta ([10]; iv infusion, at QT effect dose 30 mg/kg)	Cmax: Free drug at QT effect dose ([10]; 30 mg/kg)	Cmax: Free drug at NOEL dose ([10]; NOEL dose 10 mg/kg)
>50000 nM	59% (A)	CC[C@@H](C)NC(=O)N[C@@H](C(=O)N1CC[C@](O)(c2ccc(Cl)cc2)C(C)(C)C1)C(C)C [#897]	2.1 nM																	
		CC(C)[C@@H](NC(=O)[C@@H]1CC[C@@H](O)C1)C(=O)N1CC[C@](O)(c2ccc(Cl)cc2)C(C)(C)C1 [EX# 572]	1.5 nM	32%	25%	19% @ 30 μM	0.16	0.13	48.6 µM	10 mg/kg	22 ms	6.3 µM	< 6.3 µM							
10200 nM	99% (A)	CC(C)NC(=O)N[C@@H](C(=O)N1CC[C@](O)(c2ccc(Cl)cc2)C(C)(C)C1)C(C)C [#850]	0.5 nM																	
		CC(C)[C@@H](NC(=O)c1cccc(S(N)(=O)=O)c1)C(=O)N1CC[C@](O)(c2ccc(Cl)cc2)C(C)(C)C1 [EX# 491]	2.1 nM	27%	13%		0.05	0.06		30 mg/kg				22% @ 10 μM	138 µM	77 µM	10 mg/kg	17 ms	5.5 µM	3.1 µM
